From patent US9834541B2, “2-aminopyridine compounds” (Merck Patent GmbH, priority 2012, dated 2017)

Columns and labels:
Wnt pathway = assay: Cellular assay for Wnt pathway activity, LS174T-shl-fLuc clone 5 (LS174T-L5) luciferase reporter assay; type: cell-based; settings: Homo sapiens; LS174T TCF luciferase reporter cells, 24 hours incubation
Excerpt: 1. Cellular Assay for Wnt Pathway Activity LS174T-shl-fLuc Clone 5 (LS174T-L5) Reporter Assay Principle:
This assay is based on an in-vitro luciferase activity readout. The human colon cancer cell line, LS174T was transduced with a lentivirus encoding a short half-life luciferase (with a destabilised PEST sequence construct; construct F1756): 16×TCF/LEF transcription sites—short half life firefly luciferase on a basal pTA promoter—puromycin resistance gene on an EF-1-α promoter). This construct was made using the lentiviral base vector: pCDF1-MCS2-EF1-Puro from System Biosciences (cat. # CD110B-1). The luciferase has a T1/2 of about 60 minutes.
Stable luciferase-expressing clones were selected, using 1 μg/mL puromycin selection and the clones were bulked up.
Compounds that inhibit the Wnt pathway are predicted to inhibit the induction of luciferase transcription by TCF; this will result in reduced luciferase protein production and luciferase signal readout.
Compounds were tested for their Wnt pathway inhibitory activities using the described firefly luciferase reporter cell based assay. An LS174T luciferase reporter cell line was used which contained a T-Cell Factor (TCF) dependent gene promoter firefly luciferase construct.
Compounds, in concentrations from 30 μM to 1 nM, were incubated for 24 hours on the cells. Luciferase activities were determined using the Steady Glo Luciferase Assay System (Promega) and the TOPCOUNT microplate reader (Perkin Elmer). For analysis, the obtained data were normalized against the untreated vehicle control and fitted for determination of the IC50 values using the Excel Fit application of the Excel Software (Microsoft).

[1] = CLint (intrinsic clearance) assay, liver microsomal incubation; type: in vitro ADME, human; settings: liver microsomes, pH 7.4; human hepatic microsomes, 0.5 mg/mL protein, class symbols
Experimental: Also shown is the human hepatic microsomal intrinsic clearance (CLint), whereby the following classification is used:
2. CLint (Intrinsic Clearance) Assay
A Tecan Genesis workstation (RWS ASY 150/8) was used to perform the microsomal incubations. Analysis was carried out using a Waters ACQUITY UPLC system coupled to an ABSciex API3000 mass spectrometer. Data analysis was performed using Assay Explorer (Symyx).
Column: Acquity UPLC BEH C18, 2.1×50 mm, 1.7 um (Waters)
Mobile phases: • A=0.1% formic acid in water • B=acetonitrile
Column temperature: 50° C.
0.1 M potassium phosphate buffer pH 7.4 containing 1 mM MgCl2
15 mM NADPH in phosphate buffer
5.0 mg protein/mL liver microsomes in phosphate buffer
Each experiment consists of 12 test and 2 reference compounds. The reference compounds are incubated as a cocktail.
Dilution of test compounds was done in 2 steps from a 10 mM DMSO stock solution. First 4 μL stock solution was added to 196 μL of 20% DMSO in potassium phosphate buffer pH 7.4. In a second step 10 μL of the first dilution were added to 1890 μL potassium phosphate buffer and 100 μL internal standard solution to a final concentration of […].
100 μL of the final compound dilution were aliquoted into a 96 deep well plate. 12.5 μL liver microsomes were added to each well (0.5 mg/mL final protein concentration) and the samples preincubated for 5 min at 37° C. and 800 rpm agitation.
After the preincubation, 250 μL cold acetonitrile were added to the 0 min samples to prevent a reaction. Following this, 12.5 μL NADPH solution were added to all wells to start the incubation, with the exception of the 0 min and 30 min controls without cofactor, where the NADPH was substituted for phosphate buffer.
The incubations were stopped after 5, 10, 20 and 30 min by adding 250 μL cold acetonitrile to the individual wells.
The quenched samples were then centrifuged at 4000 g for 1 h at 4° C. 100 μL of the supernatant were transferred into 96 well plates for analysis.
The metabolic stability of each compound was determined by measurement of the change in LC-MS/MS peak area over time. Assay Explorer software was used to automatically calculate the slope k of the decline. The intrinsic clearance (CLint) of each compound was then calculated according to the formula: CLint(μL/min/mg protein)=k1000/protein concentration.

| Structure (SMILES) | IC50 (Wnt pathway) | microsomal CLint at 0.8 μM [1] |
| --- | --- | --- |
| CN1c2ccc(-c3cnc(N)c(C(F)(F)F)c3N3CCC4(CC3)CNC(=O)O4)cc2CS1(=O)=O [Compound 42, 8-[2-Amino-5-(1-methyl-2,2-dioxo-2,3-dihydro-1H-2I6-benzo[c]isothiazol-5-yl)-3-trifluoro-methyl-pyridin-4-yl]-1-oxa-3,8-diaza-spiro[4.5] decan-2-one] | 11 nM | 10 to 50 µL/min/mg |
| Cn1cc(-c2ccc(-c3cnc(N)c(C(F)(F)F)c3N3CCC4(CCNC4=O)CC3)cc2)cn1 [Compound 43, 8-{2-Amino-5-[4-(1-methyl-1H-pyrazol-4-yl)-phenyl]-3-trifluoromethyl-pyridin-4-yl}-2,8-diaza-spiro[4.5] decan-1-one] | 46 nM | 10 to 50 µL/min/mg |
| Nc1ncc(-c2ccc3c(N)n[nH]c3c2)c(N2CCC3(CCNC3=O)CC2)c1C(F)(F)F [Compound 44, 8-[2-Amino-5-(3-amino-1H-indazol-6-yl)-3-trifluoro-methyl-pyridin-4-yl]-2,8-diaza-spiro[4.5] decan-1-one] | 270 nM | 10 to 50 µL/min/mg |
| CN1c2ccc(-c3cnc(N)c(Cl)c3N3CCC4(CC3)NCCNC4=O)cc2CS1(=O)=O [Compound 46, 9-[2-Amino-3-chloro-5-(1-methyl-2,2-dioxo-2,3-dihydro-1H-2I6-benzo[c]isothiazol-5-yl)-pyridin-4-yl]-1,4,9-triaza-spiro[5.5] undecan-5-one] | 150 nM | 50 to 100 µL/min/mg |
| Cn1ncc2cc(-c3cnc(N)c(C(F)(F)F)c3N3CCC(C(N)=O)CC3)ccc21 [Compound 47, 2′-Amino-5′-(1-methyl-1H-indazol-5-yl)-3′-trifluoromethyl-3,4,5,6-tetrahydro-2H-[1,4′] bipyridinyl-4-carboxylic acid amide] | 110 nM | 50 to 100 µL/min/mg |
| Cn1ncc2cc(-c3cnc(N)c(C(F)(F)F)c3N3CCC4(CC3)CC(=O)NC4=O)ccc21 [Compound 49, 8-[2-Amino-5-(1-methyl-1H-indazol-5-yl)-3-trifluoromethyl-pyridin-4-yl]-2,8-diaza-spiro[4.5] decane-1,3-dione] | 4 nM | 10 to 50 µL/min/mg |
| CN1C(=O)Cc2ccc(-c3cnc(N)c(C(F)(F)F)c3N3CCC4(CCNC4=O)CC3)cc21 [Compound 50, 8-[2-Amino-5-(1-methyl-2-oxo-2,3-dihydro-1H-indol-6-yl)-3-trifluoromethyl-pyridin-4-yl]-2,8-diaza-spiro[4.5] decan-1-one] | 817 nM | 10 to 50 µL/min/mg |
| CN1C(=O)Cc2cc(-c3cnc(N)c(C(F)(F)F)c3N3CCC4(CCNC4=O)CC3)ccc21 [Compound 51, 8-[2-Amino-5-(1-methyl-2-oxo-2,3-dihydro-1H-indol-5-yl)-3-trifluoromethyl-pyridin-4-yl]-2,8-diaza-spiro[4.5] decan-1-one] | 455 nM | 10 to 50 µL/min/mg |
| Cn1cc(-c2ccc(-c3cnc(N)c(C(F)(F)F)c3N3CCC4(CC3)CC(=O)NC4=O)cc2)cn1 [Compound 52, 8-{2-Amino-5-[4-(1-methyl-1H-pyrazol-4-yl)-phenyl]-3-trifluoromethyl-pyridin-4-yl}-2,8-diaza-spiro[4.5] decane-1,3-dione] | 1.2 nM | 10 to 50 µL/min/mg |
| CN1c2ccc(-c3cnc(N)c(C(F)(F)F)c3N3CCC4(CCNC4=O)CC3)cc2CS1(=O)=O [Compound 53, 8-[2-Amino-5-(1-methyl-2,2-dioxo-2,3-dihydro-1H-2I6-benzo[c]isothiazol-5-yl)-3-trifluoro-methyl-pyridin-4-yl]-2,8-diaza-spiro[4.5] decan-1-one] | 8.29 nM | 50 to 100 µL/min/mg |
| CC(C)n1cc(-c2ccc(-c3cnc(N)c(C(F)(F)F)c3N3CCC4(CC3)CNC(=O)O4)cc2)cn1 [Compound 54, 8-{2-Amino-5-[4-(1-isopropyl-1H-pyrazol-4-yl)-phenyl]-3-trifluoro-methyl-pyridin-4-yl}-1-oxa-3,8-diaza-spiro[4.5] decan-2-one] | 88 nM | 10 to 50 µL/min/mg |
| CC(C)n1cc(-c2ccc(-c3cnc(N)c(Cl)c3N3CCC4(CC3)CNC(=O)O4)cc2)cn1 [Compound 55, 8-{2-Amino-3-chloro-5-[4-(1-isopropyl-1H-pyrazol-4-yl)-phenyl]-pyridin-4-yl}-1-oxa-3,8-diaza-spiro[4.5] decan-2-one] | 170 nM | 10 to 50 µL/min/mg |
| CCN1c2ccc(-c3cnc(N)c(Cl)c3N3CCC4(CCNC4=O)CC3)cc2CS1(=O)=O [Compound 58, 8-[2-Amino-3-chloro-5-(1-ethyl-2,2-dioxo-2,3-dihydro-1H-2I6-benzo[c]isothiazol-5-yl)-pyridin-4-yl]-2,8-diaza-spiro[4.5] decan-1-one] | 7.6 nM | ≥ 150 µL/min/mg |
| CS(=O)(=O)CCn1cc(-c2ccc(-c3cnc(N)c(Cl)c3N3CCC4(CCNC4=O)CC3)cc2)cn1 [Compound 59, 8-(2-Amino-3-chloro-5-{4-[1-(2-methanesulfonyl-ethyl)-1H-pyrazol-4-yl]-phenyl}-pyridin-4-yl)-2,8-diaza-spiro[4.5] decan-1-one] | 45 nM | 10 to 50 µL/min/mg |
| CN1c2ccc(-c3cnc(N)c(F)c3N3CCC4(CC3)CNC(=O)O4)cc2CS1(=O)=O [Compound 60, 8-[2-Amino-3-fluoro-5-(1-methyl-2,2-dioxo-2,3-dihydro-1H-2l6-benzo[c]isothiazol-5-yl)-pyridin-4-yl]-1-oxa-3,8-diaza-spiro[4.5]decan-2-one] | 103 nM | < 10 µL/min/mg |
| CN1c2ccc(-c3cnc(N)c(F)c3N3CCC4(CCNC4=O)CC3)cc2CS1(=O)=O [Compound 61, 8-[2-Amino-3-fluoro-5-(1-methyl-2,2-dioxo-2,3-dihydro-1H-2l6-benzo[c]isothiazol-5-yl)-pyridin-4-yl]-2,8-diaza-spiro[4.5]decan-1-one] | 60.1 nM | 10 to 50 µL/min/mg |
| Nc1ncc(-c2ccc3c(c2)CCS3(=O)=O)c(N2CCC3(CCNC3=O)CC2)c1Cl [Compound 62, 8-[2-Amino-3-chloro-5-(1,1-dioxo-2,3-dihydro-1H-1I6-benzo[b]thiophen-5-yl)-pyridin-4-yl]-2,8-diaza-spiro[4.5] decan-1-one] | 450 nM | 10 to 50 µL/min/mg |
| Cn1cc(-c2ccc(-c3cnc(N)c(F)c3N3CCC4(CC3)CNC(=O)O4)cc2)cn1 [Compound 63, 8-{2-Amino-3-fluoro-5-[4-(1-methyl-1H-pyrazol-4-yl)-phenyl]-pyridin-4-yl}-1-oxa-3,8-diaza-spiro[4.5] decan-2-one] | 237 nM | 10 to 50 µL/min/mg |
| Cn1ncc2cc(-c3cnc(N)c(F)c3N3CCC4(CCNC4=O)CC3)ccc21 [Compound 64, 8-[2-Amino-3-fluoro-5-(1-methyl-1H-indazol-5-yl)-pyridin-4-yl]-2,8-diaza-spiro[4.5] decan-1-one] | 644 nM | 10 to 50 µL/min/mg |
| CN1c2ccc(-c3cnc(N)c(Cl)c3N3CC[C@H](C#N)[C@@H](O)C3)cc2CS1(=O)=O [Compound 65, (3R,4R)-2′-Amino-3′-chloro-3-hydroxy-5′-(1-methyl-2,2-dioxo-2,3-dihydro-1H-2I6-benzo[c]isothiazol-5-yl)-3,4,5,6-tetrahydro-2H-[1,4′] bipyridinyl-4-carbonitrile] | 14 nM | 10 to 50 µL/min/mg |
